Target: T1, β-secretase(BACE) (Homo sapiens, UniProt P56817)
T1 construct: purchased Panvera
Assay: BACE FS1% Inhibition Assay
Type: biochemical
Conditions: FS1 substrate
Method in brief: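 Percent inhibition at each tested concentration, referenced to enzyme-free blank and vehicle-only positive control. Reaction: compound and BACE (4 μg/mL working stock) mixed 20 min at room temperature before FS1 substrate (300 μg/mL working stock), then 1 h at room temperature.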

T1 sequence (P56817 46-501): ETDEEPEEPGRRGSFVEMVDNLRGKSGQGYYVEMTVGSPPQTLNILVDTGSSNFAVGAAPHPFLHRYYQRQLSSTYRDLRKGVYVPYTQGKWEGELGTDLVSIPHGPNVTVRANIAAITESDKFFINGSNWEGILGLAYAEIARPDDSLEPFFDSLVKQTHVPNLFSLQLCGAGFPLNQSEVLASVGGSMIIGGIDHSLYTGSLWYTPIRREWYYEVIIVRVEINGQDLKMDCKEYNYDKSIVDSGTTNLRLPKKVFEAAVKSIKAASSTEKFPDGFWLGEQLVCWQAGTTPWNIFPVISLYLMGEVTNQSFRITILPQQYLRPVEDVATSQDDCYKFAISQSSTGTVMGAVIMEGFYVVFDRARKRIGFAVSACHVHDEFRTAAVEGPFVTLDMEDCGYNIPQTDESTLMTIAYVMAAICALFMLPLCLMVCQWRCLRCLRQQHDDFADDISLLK

Compound | % Inhibition (FS) 0.3 μM (0.3 μM test compound) [%] | % Inhibition (FS) 1 μM (1 μM test compound) [%] | % Inhibition (FS) 3 μM (3 μM test compound) [%] | % Inhibition (FS) (0.3 μM test compound) [%] | % Inhibition (FS) (1 μM test compound) [%] | % Inhibition (FS) (3 μM test compound) [%]
Cc1ccccc1-c1ccc2c(c1)CN(CCNC(=O)C13CC4CC(CC(C4)C1)C3)C(N)=N2 [Compound 658] | <30 | 62 | 100 | – | – | –
CCCC(=O)NCCN1Cc2cc(-c3ccccc3C)ccc2N=C1N [Compound 659] | 43 | 69 | 100 | – | – | –
Cc1ccccc1-c1ccc2c(c1)CN(CCNC(=O)C(C)(C)C)C(N)=N2 [Compound 660] | 63 | 86 | 105 | – | – | –
Cc1ccccc1-c1ccc2c(c1)CN(CCNC(=O)CCC(C)C)C(N)=N2 [Compound 661] | – | – | – | 68 | 98 | 106
CCCCC(CC)C(=O)NCCN1Cc2cc(-c3ccccc3C)ccc2N=C1N (stereo not drawn) [Compound 662] | – | – | – | 66 | 97 | 109
NC1=Nc2ccc(-c3ccc4ccccc4c3)cc2CN1CCNC(=O)C1CCC1 [Compound 663] | – | – | – | <30 | <30 | <30
NC1=Nc2ccc(-c3ccc4ccccc4c3)cc2CN1CCNC(=O)C1CCCC1 [Compound 664] | – | – | – | <30 | <30 | <30
NC1=Nc2ccc(-c3ccc4ccccc4c3)cc2CN1CCNC(=O)C12CC3CC(CC(C3)C1)C2 [Compound 665] | – | – | – | 35 | <30 | <30
CCCC(=O)NCCN1Cc2cc(-c3ccc4ccccc4c3)ccc2N=C1N [Compound 666] | – | – | – | 37 | <30 | <30
CC(C)(C)C(=O)NCCN1Cc2cc(-c3ccc4ccccc4c3)ccc2N=C1N [Compound 667] | – | – | – | 33 | <30 | <30
CC(C)CCC(=O)NCCN1Cc2cc(-c3ccc4ccccc4c3)ccc2N=C1N [Compound 668] | – | – | – | <30 | <30 | <30
CCCCC(CC)C(=O)NCCN1Cc2cc(-c3ccc4ccccc4c3)ccc2N=C1N (stereo not drawn) [Compound 669] | – | – | – | <30 | <30 | 32
NC1=Nc2ccc(-c3cnc4ccccc4c3)cc2CN1CCNC(=O)C1CCC1 [Compound 670] | – | – | – | <30 | <30 | 44
NC1=Nc2ccc(-c3cnc4ccccc4c3)cc2CN1CCNC(=O)C1CCCC1 [Compound 671] | – | – | – | <30 | 30 | <30
NC1=Nc2ccc(-c3cnc4ccccc4c3)cc2CN1CCNC(=O)C12CC3CC(CC(C3)C1)C2 [Compound 672] | – | – | – | <30 | <30 | <30
CCCC(=O)NCCN1Cc2cc(-c3cnc4ccccc4c3)ccc2N=C1N [Compound 673] | – | – | – | 34 | <30 | <30
CC(C)(C)C(=O)NCCN1Cc2cc(-c3cnc4ccccc4c3)ccc2N=C1N [Compound 674] | – | – | – | 36 | <30 | 41
CC(C)CCC(=O)NCCN1Cc2cc(-c3cnc4ccccc4c3)ccc2N=C1N [Compound 675] | – | – | – | 35 | <30 | <30
CCCCC(CC)C(=O)NCCN1Cc2cc(-c3cnc4ccccc4c3)ccc2N=C1N (stereo not drawn) [Compound 676] | – | – | – | 33 | <30 | 44
Cc1ccccc1-c1ccc2c(c1)CN(CCNC(=O)CCC(F)(F)F)C(N)=N2 [Compound 678] | – | – | – | 51 | 88 | 99
Cc1ccccc1-c1ccc2c(c1)CN(CCNC(=O)CC(C)C(F)(F)F)C(N)=N2 (stereo not drawn) [Compound 679] | – | – | – | 78 | 99 | 103

Compound | % Inhibition (FS) 0.3 μM (0.3 μM test compound) [%] | % Inhibition (FS) 1 μM (1 μM test compound) [%] | % Inhibition (FS) 3 μM (3 μM test compound) [%] | % Inhibition (FS) (0.3 μM test compound) [%] | % Inhibition (FS) (1 μM test compound) [%] | % Inhibition (FS) (3 μM test compound) [%]
NC1=Nc2ccc(-c3ccccc3F)cc2CN1CCNC(=O)CCC(F)(F)F [Compound 680] | – | – | – | 42 | 75 | 90
CC(CC(=O)NCCN1Cc2cc(-c3ccccc3F)ccc2N=C1N)C(F)(F)F (stereo not drawn) [Compound 681] | – | – | – | 67 | 100 | 103
NC1=Nc2ccc(-c3ccccc3Cl)cc2CN1CCNC(=O)CCC(F)(F)F [Compound 682] | – | – | – | 39 | 77 | 97
CC(CC(=O)NCCN1Cc2cc(-c3ccccc3Cl)ccc2N=C1N)C(F)(F)F (stereo not drawn) [Compound 683] | – | – | – | 64 | 86 | 102
NC1=Nc2ccc(-c3ccccc3)cc2CN1CCNC(=O)CCC(F)(F)F [Compound 684] | – | – | – | 33 | 38 | 78
CC(CC(=O)NCCN1Cc2cc(-c3ccccc3)ccc2N=C1N)C(F)(F)F (stereo not drawn) [Compound 685] | – | – | – | 50 | 90 | 101
NC1=Nc2ccc(-c3ccc4ccccc4c3)cc2CN1CCNC(=O)CCC(F)(F)F [Compound 686] | – | – | – | <30 | 73 | 80
NC1=Nc2ccc(-c3ccccc3F)cc2CN1CCNC(=O)C1CCOCC1 [Compound 687] | – | – | – | <30 | 50 | 87
NC1=Nc2ccc(-c3ccccc3F)cc2CN1CCNC(=O)C1CCC(C(F)(F)F)CC1 (stereo not drawn) [Compound 688] | – | – | – | <30 | 36 | 81
NC1=Nc2ccc(-c3ccccc3Cl)cc2CN1CCNC(=O)C1CCOCC1 [Compound 689] | – | – | – | 33 | 82 | 102
NC1=Nc2ccc(-c3ccccc3Cl)cc2CN1CCNC(=O)C1CCC(C(F)(F)F)CC1 (stereo not drawn) [Compound 690] | – | – | – | <30 | <30 | 52
CC(=O)N1CCC(C(=O)NCCN2Cc3cc(-c4ccccc4Cl)ccc3N=C2N)CC1 [Compound 691] | – | – | – | <30 | <30 | 51
Cc1ccccc1-c1ccc2c(c1)CN(CCNC(=O)C1CCC(C(F)(F)F)CC1)C(N)=N2 (stereo not drawn) [Compound 694] | – | – | – | <30 | <30 | 84
CC(=O)N1CCC(C(=O)NCCN2Cc3cc(-c4ccccc4C)ccc3N=C2N)CC1 [Compound 695] | – | – | – | <30 | <30 | 54
COC1CCCC(C(=O)NCCN2Cc3cc(-c4ccccc4C)ccc3N=C2N)C1 (stereo not drawn) [Compound 696] | – | – | – | <30 | 72 | 104
COc1ccccc1-c1ccc2c(c1)CN(CCNC(=O)C1CCOCC1)C(N)=N2 [Compound 697] | – | – | – | <30 | <30 | 63
COc1ccccc1-c1ccc2c(c1)CN(CCNC(=O)C1CCC(C(F)(F)F)CC1)C(N)=N2 (stereo not drawn) [Compound 698] | – | – | – | <30 | <30 | 64
COc1cccc(F)c1-c1ccc2c(c1)CN(CCNC(=O)C1CCOCC1)C(N)=N2 [Compound 699] | – | – | – | 31 | 64 | 93
COc1cccc(F)c1-c1ccc2c(c1)CN(CCNC(=O)C1CCC(C(F)(F)F)CC1)C(N)=N2 (stereo not drawn) [Compound 700] | – | – | – | <30 | 36 | 85
NC1=Nc2ccc(-c3ccccc3)cc2CN1CCNC(=O)C1CCC(C(F)(F)F)CC1 (stereo not drawn) [Compound 701] | – | – | – | <30 | <30 | 54
CC(=O)N1CCC(C(=O)NCCN2Cc3cc(-c4ccccc4)ccc3N=C2N)CC1 [Compound 702] | – | – | – | <30 | <30 | <30

From patent publication US8383637B2, “2-amino-quinazoline derivatives useful as inhibitors of β-secretase (BACE)” (Jansssen Pharmaceutica N.V., priority 2004, dated 2013)
